17 molecules from patent US10829478B2, “5-[3-[piperazin-1-yl]-3-oxo-propyl]-imidazolidine-2,4-dione derivatives as ADAMTS 4 and 5 inhibitors for treating e.g. osteoarthritis” (Galapagos NV, priority 2016, dated 2020) can be followed below.

Like-named read-outs stand apart in the source and are kept apart here. Bounds are passed on as bounds.

The target in experiment [1] is human ADAMTS6 (Homo sapiens (Human), UniProt Q9UKP5). In words: hADAMTS-6 fluorescent based protease assay (520 MMP FRET substrate XII). Format: biochemical. The following applies: 37° C. for 2 h; read-out: hADAMTS-6 potency IC50. Put shortly:
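ADAMTS6 (0.73 nM final) in 25 mM Tris pH 8.0, 0.05% CHAPS, 2.5 mM CaCl2 with compound dilution series (top 20 μM, 1/5 steps). Reaction started with 520 MMP FRET Substrate XII, incubated 2 h at 37 °C. Substrate cleavage read by fluorescence ex485/em530; IC50 determined.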

The target of experiment [2] is human MMP13 (Homo sapiens (Human), UniProt P45452). In words: hMMP13 assay, Protocol 1 (390 MMP FRET Substrate I, Chemicon enzyme). Type of experiment: biochemical. The conditions noted are these: Protocol 1, human MMP13 (Chemicon), read-out: hMMP-13 potency IC50. The protocol:
Human MMP13 is preactivated by incubated the enzyme in the same buffer complemented with 1 mM freshly prepared p-Aminophenylmercuric acetate (AMPA) for 1 h at 37° C.

In experiment [3] the target is rnADAMTS-5 (1-564-6H) (Rattus norvegicus (Rat), UniProt Q6TY19). Description: Rat ADAMTS-5 TBIS-1 cleavage assay. Format: biochemical. The conditions noted are these: 120 min at 37° C.; read-out: Rat ADAMTS-5 potency IC50.
rnADAMTS-5 (1-564-6H), sequence (Q6TY19 entry or part of it): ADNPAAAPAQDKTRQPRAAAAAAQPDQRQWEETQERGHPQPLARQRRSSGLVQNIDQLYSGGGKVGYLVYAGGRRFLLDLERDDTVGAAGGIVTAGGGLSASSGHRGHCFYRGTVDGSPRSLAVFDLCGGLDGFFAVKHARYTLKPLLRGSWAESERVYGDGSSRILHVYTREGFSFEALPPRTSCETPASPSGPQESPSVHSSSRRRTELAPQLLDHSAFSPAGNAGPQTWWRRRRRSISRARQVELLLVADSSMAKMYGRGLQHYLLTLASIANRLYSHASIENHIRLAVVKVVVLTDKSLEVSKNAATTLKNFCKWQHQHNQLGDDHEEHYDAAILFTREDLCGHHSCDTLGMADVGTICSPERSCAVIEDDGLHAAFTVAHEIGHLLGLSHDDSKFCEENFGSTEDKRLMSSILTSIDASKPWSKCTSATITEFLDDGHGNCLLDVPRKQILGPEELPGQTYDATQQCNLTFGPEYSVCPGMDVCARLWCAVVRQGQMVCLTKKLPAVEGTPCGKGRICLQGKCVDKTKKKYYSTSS
Experiment [4] addresses human TACE (Homo sapiens (Human), UniProt P78536). Description: biochemical.
Protocol: Finally, the fluorescence is read on the Envision (Perkin Elmer) after an incubation of 75 min at room temperature (Excitation 485 nm, Emission 530).
Experiment [5] addresses human ADAMTS4 (Homo sapiens (Human), UniProt O75173). Description: hADAMTS-4 TBIS-1 cleavage assay, Protocol 2. Format: biochemical.
The target in experiment [6] is human ADAMTS-5 (Homo sapiens (Human), UniProt Q9UNA0). Description: hADAMTS-5 TBIS-1 cleavage assay, Protocol 3. Format: biochemical. The conditions noted are these: 90 min at 37° C., read-out: hADAMTS-5 potency IC50.
human ADAMTS-5, sequence (Q9UNA0 262-930): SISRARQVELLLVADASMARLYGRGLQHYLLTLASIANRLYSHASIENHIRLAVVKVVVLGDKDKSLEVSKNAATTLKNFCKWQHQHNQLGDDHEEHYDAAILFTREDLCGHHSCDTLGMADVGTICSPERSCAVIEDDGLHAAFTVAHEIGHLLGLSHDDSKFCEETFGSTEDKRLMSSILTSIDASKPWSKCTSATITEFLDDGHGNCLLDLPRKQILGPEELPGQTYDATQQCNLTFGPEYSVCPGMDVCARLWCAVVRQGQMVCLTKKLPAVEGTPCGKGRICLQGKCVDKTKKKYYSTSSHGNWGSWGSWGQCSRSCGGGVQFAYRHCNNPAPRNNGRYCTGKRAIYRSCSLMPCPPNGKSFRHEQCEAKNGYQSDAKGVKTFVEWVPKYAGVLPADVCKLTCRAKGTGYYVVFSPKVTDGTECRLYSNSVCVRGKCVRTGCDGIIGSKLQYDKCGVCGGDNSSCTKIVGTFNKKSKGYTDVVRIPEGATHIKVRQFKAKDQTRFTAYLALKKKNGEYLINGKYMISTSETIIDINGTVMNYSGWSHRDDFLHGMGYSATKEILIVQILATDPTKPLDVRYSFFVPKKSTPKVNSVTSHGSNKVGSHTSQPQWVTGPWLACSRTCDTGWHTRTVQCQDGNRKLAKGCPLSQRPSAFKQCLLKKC
Protocol: The reaction is initiated by adding to the assay plate TBIS-1 (10 μL, 4.5 μM, Anaspec) in the same buffer.
Finally, the fluorescence is read on the Envision (Perkin Elmer) after an incubation of 90 min at 37° C. (Excitation 485 nm, emission 530).
The target in experiment [7] is human MMP14 (Homo sapiens (Human), UniProt P50281). Description: hMMP14 assay (390 MMP FRET Substrate I). Type of experiment: biochemical. The following applies: human MMP14 (Biomol), read-out: hMMP-14 potency IC50.
Protocol: The basis for the assay is the cleavage of the substrate 390 MMP FRET Substrate I (Anaspec Cat #AS-27076) by human MMP14 (Biomol, Cat #SE-259).
The reaction is initiated by adding to the assay plate 390 MMP FRET Substrate I (10 μL, 2.5 μM) in the same buffer.
Finally, the fluorescence is read on the Envision (Perkin Elmer) after an incubation of 60 min at room temperature (Excitation 485 nm, Emission 530).
The mark [8] stands for this setting: Protocol 2, 180 min at 37° C., read-out: ADAMTS4 potency IC50.

human ADAMTS6, sequence (Q9UKP5 other isoform, or with tags, fused parts or gaps): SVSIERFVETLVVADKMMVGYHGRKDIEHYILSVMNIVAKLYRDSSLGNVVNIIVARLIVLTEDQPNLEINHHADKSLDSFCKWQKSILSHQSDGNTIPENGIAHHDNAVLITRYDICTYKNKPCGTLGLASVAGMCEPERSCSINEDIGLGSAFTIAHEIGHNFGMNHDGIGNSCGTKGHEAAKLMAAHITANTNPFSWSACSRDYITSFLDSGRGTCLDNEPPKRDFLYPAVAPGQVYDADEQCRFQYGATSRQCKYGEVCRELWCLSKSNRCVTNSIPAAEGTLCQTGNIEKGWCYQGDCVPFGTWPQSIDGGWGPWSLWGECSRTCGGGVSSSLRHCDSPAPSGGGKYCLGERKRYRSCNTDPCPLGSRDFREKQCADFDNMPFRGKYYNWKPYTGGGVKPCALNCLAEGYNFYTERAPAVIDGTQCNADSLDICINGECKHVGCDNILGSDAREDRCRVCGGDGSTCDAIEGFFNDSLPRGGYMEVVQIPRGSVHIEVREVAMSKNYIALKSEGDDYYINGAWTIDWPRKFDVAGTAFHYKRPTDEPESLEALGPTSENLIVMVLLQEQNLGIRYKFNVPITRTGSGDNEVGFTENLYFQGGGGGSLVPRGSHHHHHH
human TACE, sequence (P78536 215-671): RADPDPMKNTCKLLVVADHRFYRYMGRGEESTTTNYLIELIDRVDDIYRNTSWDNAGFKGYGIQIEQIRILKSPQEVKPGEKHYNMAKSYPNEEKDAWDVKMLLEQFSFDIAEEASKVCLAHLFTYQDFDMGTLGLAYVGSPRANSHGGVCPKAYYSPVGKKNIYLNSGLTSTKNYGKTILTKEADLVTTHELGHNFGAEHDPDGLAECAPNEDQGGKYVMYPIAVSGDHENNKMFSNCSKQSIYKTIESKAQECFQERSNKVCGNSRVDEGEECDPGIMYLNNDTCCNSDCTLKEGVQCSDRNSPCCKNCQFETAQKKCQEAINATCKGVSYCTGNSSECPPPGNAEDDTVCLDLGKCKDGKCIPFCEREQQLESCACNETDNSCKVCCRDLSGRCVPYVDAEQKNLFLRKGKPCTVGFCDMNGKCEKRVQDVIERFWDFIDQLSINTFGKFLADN
human ADAMTS4, sequence (O75173 213-837): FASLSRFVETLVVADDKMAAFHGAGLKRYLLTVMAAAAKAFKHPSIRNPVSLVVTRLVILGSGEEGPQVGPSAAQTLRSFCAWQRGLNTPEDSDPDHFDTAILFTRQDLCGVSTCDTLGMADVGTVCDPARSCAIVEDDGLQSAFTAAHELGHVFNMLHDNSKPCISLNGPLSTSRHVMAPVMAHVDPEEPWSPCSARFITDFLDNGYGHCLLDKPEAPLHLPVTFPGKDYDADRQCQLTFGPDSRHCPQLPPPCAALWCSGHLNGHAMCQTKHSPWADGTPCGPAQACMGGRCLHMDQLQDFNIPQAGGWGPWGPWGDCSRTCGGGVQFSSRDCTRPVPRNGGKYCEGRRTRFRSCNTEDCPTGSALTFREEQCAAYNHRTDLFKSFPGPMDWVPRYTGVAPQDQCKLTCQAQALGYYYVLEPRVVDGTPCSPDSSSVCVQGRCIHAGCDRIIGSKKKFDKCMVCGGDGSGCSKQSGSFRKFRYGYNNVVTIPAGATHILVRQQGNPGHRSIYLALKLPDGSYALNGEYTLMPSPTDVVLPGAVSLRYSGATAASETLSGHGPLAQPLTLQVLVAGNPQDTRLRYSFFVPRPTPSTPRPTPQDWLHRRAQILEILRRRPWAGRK

For the molecule `COc1cc(N2CCN(C(=O)[C@@H](C)C[C@@]3(C)NC(=O)NC3=O)C[C@@H]2C)cc(F)c1F` (mixture of isomers) [Cpd 42, 5-[3-[(3S)-4-(3,4-difluoro-5-methoxy-phenyl)-3-methyl-piperazin-1-yl]-2-methyl-3-oxo-propyl]-5-methyl-imidazolidine-2,4-dione], the IC50 in experiment [1] was 0.001 to 25 nM; in experiment [2], greater than 100 nM; in experiment [3] it was 0.001 to 25 nM; in experiment [4], greater than 100 nM; in experiment [5], 25 to 50 nM; in experiment [6], 0.001 to 25 nM. The IC50 in experiment [7] is greater than 100 nM.
Take `COc1cc(N2CCN(C(=O)[C@@H](C)C[C@@]3(C)NC(=O)NC3=O)C[C@@H]2C)ccc1Cl` (stereo in doubt) [Cpd 41, 5-[3-[4-(4-chloro-3-methoxy-phenyl)-3-methyl-piperazin-1-yl]-2-methyl-3-oxo-propyl]-5-methyl-imidazolidine-2,4-dione]: the IC50 was 0.001 to 25 nM in experiment [1]; greater than 100 nM in experiment [2]; 0.001 to 25 nM in experiment [3]; greater than 100 nM in experiment [4]; greater than 100 nM in experiment [5] (setting [8]); 25 to 50 nM in experiment [6]. For the same molecule, in experiment [7], the IC50 was greater than 100 nM.
Regarding `COc1cc(N2CCN(C(=O)[C@@H](C)C[C@@]3(C)NC(=O)NC3=O)CC2)cc(F)c1F` (stereo in doubt) [Cpd 43, 5-[3-[4-(3,4-difluoro-5-methoxy-phenyl)piperazin-1-yl]-2-methyl-3-oxo-propyl]-5-methyl-imidazolidine-2,4-dione], the IC50 is 0.001 to 25 nM in experiment [1]; greater than 100 nM in experiment [2]; 0.001 to 25 nM in experiment [3]; greater than 100 nM in experiment [4]; 25 to 50 nM in experiment [5]; 0.001 to 25 nM in experiment [6]. For the same molecule, the IC50 in experiment [7] is greater than 100 nM.
In the case of `COc1cc(N2CCN(C(=O)CCC3(C)NC(=O)NC3=O)C[C@@H]2C)ccc1Cl` (stereo partly drawn) [Cpd 24, 5-[3-[(3S)-4-(4-chloro-3-methoxy-phenyl)-3-methyl-piperazin-1-yl]-3-oxo-propyl]-5-methyl-imidazolidine-2,4-dione], the IC50 is 0.001 to 25 nM in experiment [1]; greater than 100 nM in experiment [2]; 50 to 100 nM in experiment [3]; greater than 100 nM in experiment [4]; greater than 100 nM in experiment [5] (setting [8]); 25 to 50 nM in experiment [6]. In experiment [7], the IC50 is greater than 100 nM.
On to `COc1cc(N2CCN(C(=O)CCC3(C)NC(=O)NC3=O)CC2)c(C)cc1Cl` (centres unmarked) [Cpd 34, 5-[3-[4-(4-chloro-5-methoxy-2-methyl-phenyl)piperazin-1-yl]-3-oxo-propyl]-5-methyl-imidazolidine-2,4-dione], for which the IC50 is 25 to 50 nM in experiment [1]; greater than 100 nM in experiment [2]; greater than 100 nM in experiment [3]; greater than 100 nM in experiment [4]; greater than 100 nM in experiment [5] (setting [8]); greater than 100 nM in experiment [6].
On to `COc1cc(N2CCN(C(=O)CCC3(C)NC(=O)NC3=O)C[C@@H]2C)c(C)cc1Cl` (some centres unmarked) [Cpd 36, 5-[3-[(3 S)-4-(4-chloro-5-methoxy-2-methyl-phenyl)-3-methyl-piperazin-1-yl]-3-oxo-propyl]-5-methyl-imidazolidine-2,4-dione], for which the IC50 was 25 to 50 nM in experiment [1]; greater than 100 nM in experiment [2]; greater than 100 nM in experiment [3]; greater than 100 nM in experiment [4]; greater than 100 nM in experiment [5] (setting [8]); greater than 100 nM in experiment [6].
Regarding `COc1cc(N2CCN(C(=O)CC[C@@]3(C4CC4)NC(=O)NC3=O)C[C@@H]2C)cc(F)c1F` [Cpd 37, (5S)-5-cyclopropyl-5-[3-[(3 S)-4-(3,4-difluoro-5-methoxy-phenyl)-3-methyl-piperazin-1-yl]-3-oxo-propyl]imidazolidine-2,4-dione], the IC50 in experiment [1] was 0.001 to 25 nM; in experiment [2], greater than 100 nM; in experiment [3], 0.001 to 25 nM; in experiment [4], greater than 100 nM; in experiment [5] it was 25 to 50 nM; in experiment [6], 0.001 to 25 nM. Also, the IC50 in experiment [7] is greater than 100 nM.
As for `COc1cc(N2CCN(C(=O)CCC3(C)NC(=O)NC3=O)CC2)cc(F)c1Cl` (centres unmarked) [Cpd 38, 5-[3-[4-(4-chloro-3-fluoro-5-methoxy-phenyl)piperazin-1-yl]-3-oxo-propyl]-5-methyl-imidazolidine-2,4-dione], the IC50 was 0.001 to 25 nM in experiment [1]; greater than 100 nM in experiment [2]; 50 to 100 nM in experiment [3]; greater than 100 nM in experiment [4]; greater than 100 nM in experiment [5] (setting [8]); greater than 100 nM in experiment [6].
For the molecule `COc1cc(N2CCN(C(=O)CCC3(C)NC(=O)NC3=O)C[C@@H]2C)cc(F)c1Cl` (stereo partly drawn) [Cpd 39, 5-[3-[(3S)-4-(4-chloro-3-fluoro-5-methoxy-phenyl)-3-methyl-piperazin-1-yl]-3-oxo-propyl]-5-methyl-imidazolidine-2,4-dione], the IC50 in experiment [1] was 0.001 to 25 nM; in experiment [2], greater than 100 nM; in experiment [3], 50 to 100 nM; in experiment [4] it was greater than 100 nM; in experiment [5] (setting [8]) it was greater than 100 nM; in experiment [6] it was 50 to 100 nM.
As to `COc1cc(N2CCN(C(=O)CC[C@H]3NC(=O)NC3=O)C[C@@H]2C)cc(F)c1F` [Cpd 129, (5R)-5-[3-[(3S)-4-(3,4-difluoro-5-methoxy-phenyl)-3-methyl-piperazin-1-yl]-3-oxo-propyl]imidazolidine-2,4-dione], the IC50 in experiment [1] is 0.001 to 25 nM; in experiment [2], greater than 100 nM; in experiment [3], greater than 100 nM; in experiment [4], greater than 100 nM; in experiment [5] (setting [8]), greater than 100 nM; in experiment [6], greater than 100 nM.
Regarding `COc1cc(OC)cc(N2CCN(C(=O)CC[C@H]3NC(=O)NC3=O)C[C@@H]2C)c1` [Cpd 132, (5R)-5-[3-[(3 S)-4-(3,5-dimethoxyphenyl)-3-methyl-piperazin-1-yl]-3-oxo-propyl]imidazolidine-2,4-dione], the 50% inhibitory concentration (IC50) in experiment [1] was 25 to 50 nM; in experiment [2] it was greater than 100 nM; in experiment [3], greater than 100 nM; in experiment [4] it was greater than 100 nM; in experiment [5] (setting [8]), greater than 100 nM; in experiment [6], greater than 100 nM.
With `COc1cc(N2CCN(C(=O)CC[C@H]3NC(=O)NC3=O)C[C@@H]2C)ccc1Cl` [Cpd 133, (5R)-5-[3-[(3 S)-4-(4-chloro-3-methoxy-phenyl)-3-methyl-piperazin-1-yl]-3-oxo-propyl]imidazolidine-2,4-dione], the IC50 was 0.001 to 25 nM in experiment [1]; greater than 100 nM in experiment [2]; greater than 100 nM in experiment [3]; greater than 100 nM in experiment [4]; greater than 100 nM in experiment [5] (setting [8]); greater than 100 nM in experiment [6].
Regarding `COc1cc(N2CCN(C(=O)CC[C@H]3NC(=O)NC3=O)CC2)cc(OC)c1Cl` [Cpd 135, (5R)-5-[3-[4-(4-chloro-3,5-dimethoxy-phenyl)piperazin-1-yl]-3-oxo-propyl]imidazolidine-2,4-dione], the IC50 is 0.001 to 25 nM in experiment [1]; greater than 100 nM in experiment [2]; greater than 100 nM in experiment [3]; greater than 100 nM in experiment [4]; greater than 100 nM in experiment [5] (setting [8]); greater than 100 nM in experiment [6].
On to `COc1cc(N2CCN(C(=O)CC[C@H]3NC(=O)NC3=O)CC2)c(C)cc1Cl` [Cpd 138, (5R)-5-[3-[4-(4-chloro-5-methoxy-2-methyl-phenyl)piperazin-1-yl]-3-oxo-propyl]imidazolidine-2,4-dione], for which the IC50 in experiment [1], in experiment [2], in experiment [3], in experiment [4], in experiment [5] (setting [8]) and in experiment [6] was greater than 100 nM throughout.
Turning to `COc1cc(N2CCN(C(=O)CC[C@H]3NC(=O)NC3=O)C[C@@H]2C)cc(OC)c1Cl` [Cpd 139, (5R)-5-[3-[(3 S)-4-(4-chloro-3,5-dimethoxy-phenyl)-3-methyl-piperazin-1-yl]-3-oxo-propyl]imidazolidine-2,4-dione], the IC50 in experiment [1] is 0.001 to 25 nM; in experiment [2] it was greater than 100 nM; in experiment [3], 50 to 100 nM; in experiment [4], greater than 100 nM; in experiment [5] (setting [8]), greater than 100 nM; in experiment [6] it was greater than 100 nM.
As for `COc1cc(N2CCN(C(=O)CC[C@H]3NC(=O)NC3=O)C[C@@H]2C)c(C)cc1Cl` [Cpd 142, (5R)-5-[3-[(3S)-4-(4-chloro-5-methoxy-2-methyl-phenyl)-3-methyl-piperazin-1-yl]-3-oxo-propyl]imidazolidine-2,4-dione], the IC50 in experiment [1] is 50 to 100 nM; in experiment [2], greater than 100 nM; in experiment [3] it was greater than 100 nM; in experiment [4], greater than 100 nM; in experiment [5] (setting [8]), greater than 100 nM; in experiment [6] it was greater than 100 nM.
Turning to `COc1cc(N2CCN(C(=O)CC[C@H]3NC(=O)NC3=O)C[C@@H]2C)cc(F)c1Cl` [Cpd 144, (5R)-5-[3-[(3 S)-4-(4-chloro-3-fluoro-5-methoxy-phenyl)-3-methyl-piperazin-1-yl]-3-oxo-propyl]imidazolidine-2,4-dione], the IC50 in experiment [1] was 0.001 to 25 nM; in experiment [2], greater than 100 nM; in experiment [3], 50 to 100 nM; in experiment [4], greater than 100 nM; in experiment [5] (setting [8]) it was greater than 100 nM; in experiment [6], 50 to 100 nM.

A word on the IC50: it is the concentration at which inhibition is half-maximal.
